Results published in patent publication US11473151B2, “Diagnostic and therapeutic methods for cancer” (Genentech, Inc., priority 2017, dated 2022).

Tested on: mUC patients (IMvigor210)
Assay: Association between mutations (FMOne panel, single genes and pathways) and response to atezolizumab or TMB
Type: in vivo, human
Text: In addition, DNA was extracted from FFPE 10 micron sections from 293 patients and submitted to a Clinical Laboratory Improvement Amendments (CLIA)-certified, New York State-accredited, and College of American Pathologists (CAP)-accredited laboratory (Foundation Medicine, Cambridge, Mass.) for targeted next-generation sequencing (NGS)-based genomic profiling. Adaptor-ligated DNA underwent hybrid capture for all coding exons of 395 cancer-related genes plus select introns from 31 genes frequently rearranged in cancer (FMOne panel).
Captured libraries were sequenced to a median exon coverage depth of >500× (DNA) or 3M unique reads (RNA) using Agilent SURESELECT® v5 kit at 51 Mb on the ILLUMINA® HISEQ® 2500, and resultant sequences were analyzed for base substitutions, small insertions and deletions (indels), copy number alterations (focal amplifications and homozygous deletions), and gene fusions/rearrangements, as previously described (Frampton et al. Nat. Biotechnol. 31:1023-1031, 2013). Frequent germline variants from the 1000 Genomes Project (dbSNP142) were removed. To maximize mutation-detection accuracy (sensitivity and specificity) in impure clinical specimens, the test was previously optimized and validated to detect base substitutions at a ≥5% mutant allele frequency (MAF), indels with a ≥10% MAF with ≥99% accuracy, and fusions occurring within baited introns/exons with >99% sensitivity (Frampton et al. supra). Known confirmed somatic alterations deposited in the Catalog of Somatic Mutations in Cancer (COSMIC v62) are called at allele frequencies ≥1% (Forbes et al. Nucleic Acids Res. 39:D945-D950, 2011).
From the FMOne panel, tumor mutational burden was calculated from the number of short variants in coding regions (substitutions and indels, including synonymous alterations) that were detected. Known and predicted germline alterations as well as known somatic and likely somatic variants are not counted. The mutation burden per Mb is the number of mutations counted divided by the Mb of genomic target territory of the FMOne panel. Unless otherwise indicated, FMOne-based mutation burden was used for all analyses around mutation burden.
For each gene, a patient was called mutant if a known or likely mutation was reported for that gene. For pathway-based analyses, a patient was called mutant in a pathway if any gene within the pathway was reported to have a known or likely mutation. Otherwise, a patient was considered to be non-mutant. A Fisher's Exact Test was used to determine whether the number of mutant patients differed between responders (complete and partial responders) and non-responders (stable and progressive disease). An association between mutation status and mutation burden was tested using a Wilcoxon Rank Sum Test. Single gene p-values were corrected for the number of tests performed using Benjamini and Hochberg adjustment. For pathway-based analyses, nominal p-values are reported.

Substance: atezolizumab: anti-PD-L1 antibody (Genentech), CAS Registry Number 1422185-06-5, also known as MPDL3280A
- estimate (IKBKE mutation status vs response (CR/PR vs. SD/PD)): 0
- estimate (INPP4B mutation status vs response (CR/PR vs. SD/PD)): 0.00E+00
- estimate (IRS2 mutation status vs response (CR/PR vs. SD/PD)): 4.96E−01
- estimate (JAK1 mutation status vs response (CR/PR vs. SD/PD)): 0.00E+00
- estimate (JAK2 mutation status vs response (CR/PR vs. SD/PD)): 3.33E−01
- estimate (JUN mutation status vs response (CR/PR vs. SD/PD)): Inf
- estimate (KDM5A mutation status vs response (CR/PR vs. SD/PD)): Inf
- estimate (KDM5C mutation status vs response (CR/PR vs. SD/PD)): 3.30E−01
- estimate (KDM6A mutation status vs response (CR/PR vs. SD/PD)): 0.5153
- estimate (KDR mutation status vs response (CR/PR vs. SD/PD)): 0
- estimate (KEAP1 mutation status vs response (CR/PR vs. SD/PD)): 0
- estimate (KEL mutation status vs response (CR/PR vs. SD/PD)): 0
- estimate (KIT mutation status vs response (CR/PR vs. SD/PD)): 0.3333
- estimate (KRAS mutation status vs response (CR/PR vs. SD/PD)): 1.346
- estimate (LRP1B mutation status vs response (CR/PR vs. SD/PD)): 0.1555
- estimate (LRP6 mutation status vs response (CR/PR vs. SD/PD)): 0
- estimate (LYN mutation status vs response (CR/PR vs. SD/PD)): Inf
- estimate (LZTR1 mutation status vs response (CR/PR vs. SD/PD)): 0
- estimate (MAGI2 mutation status vs response (CR/PR vs. SD/PD)): Inf
- estimate (MAP2K4 mutation status vs response (CR/PR vs. SD/PD)): Inf
- estimate (MAP3K1 mutation status vs response (CR/PR vs. SD/PD)): 0.3333
- estimate (MAP3K13 mutation status vs response (CR/PR vs. SD/PD)): Inf
- estimate (MCL1 mutation status vs response (CR/PR vs. SD/PD)): 0.8339
- estimate (MDM2 mutation status vs response (CR/PR vs. SD/PD)): 0.4704
- estimate (MDM4 mutation status vs response (CR/PR vs. SD/PD)): Inf
- estimate (MEN1 mutation status vs response (CR/PR vs. SD/PD)): 0
- estimate (MET mutation status vs response (CR/PR vs. SD/PD)): 0
- estimate (MITF mutation status vs response (CR/PR vs. SD/PD)): Inf
- estimate (MLL2 mutation status vs response (CR/PR vs. SD/PD)): 1.185
- estimate (MLL3 mutation status vs response (CR/PR vs. SD/PD)): 0
- estimate (MPL mutation status vs response (CR/PR vs. SD/PD)): 0
- estimate (MSH2 mutation status vs response (CR/PR vs. SD/PD)): 0.6678
- estimate (MSH6 mutation status vs response (CR/PR vs. SD/PD)): 1.346
- estimate (MST1R mutation status vs response (CR/PR vs. SD/PD)): Inf
- estimate (MTOR mutation status vs response (CR/PR vs. SD/PD)): 0.3333
- estimate (MUTYH mutation status vs response (CR/PR vs. SD/PD)): 0.6678
- estimate (MYC mutation status vs response (CR/PR vs. SD/PD)): 1.354
- estimate (MYCL1 mutation status vs response (CR/PR vs. SD/PD)): 0.6605
- estimate (MYCN mutation status vs response (CR/PR vs. SD/PD)): 0.2167
- estimate (MYST3 mutation status vs response (CR/PR vs. SD/PD)): 0.6642
- estimate (NBN mutation status vs response (CR/PR vs. SD/PD)): 0
- estimate (NCOR1 mutation status vs response (CR/PR vs. SD/PD)): 1.179
- estimate (NF1 mutation status vs response (CR/PR vs. SD/PD)): 0.4962
- estimate (NF2 mutation status vs response (CR/PR vs. SD/PD)): 0.3297
- estimate (NFE2L2 mutation status vs response (CR/PR vs. SD/PD)): 0.3333
- estimate (NFKBIA mutation status vs response (CR/PR vs. SD/PD)): Inf
- estimate (NKX2−1 mutation status vs response (CR/PR vs. SD/PD)): Inf
- estimate (NOTCH1 mutation status vs response (CR/PR vs. SD/PD)): 1.005
- estimate (NOTCH2 mutation status vs response (CR/PR vs. SD/PD)): 0.6678
- estimate (NOTCH3 mutation status vs response (CR/PR vs. SD/PD)): Inf
- estimate (NOTCH4 mutation status vs response (CR/PR vs. SD/PD)): 0.6678
- estimate (NRAS mutation status vs response (CR/PR vs. SD/PD)): 0
- estimate (NTRK1 mutation status vs response (CR/PR vs. SD/PD)): 0
- estimate (NTRK3 mutation status vs response (CR/PR vs. SD/PD)): Inf
- estimate (NUP93 mutation status vs response (CR/PR vs. SD/PD)): 0.6678
- estimate (PALB2 mutation status vs response (CR/PR vs. SD/PD)): 0.6678
- estimate (PARK2 mutation status vs response (CR/PR vs. SD/PD)): Inf
- estimate (PARP4 mutation status vs response (CR/PR vs. SD/PD)): Inf
- estimate (PAX5 mutation status vs response (CR/PR vs. SD/PD)): Inf
- estimate (PBRM1 mutation status vs response (CR/PR vs. SD/PD)): 0.1081
- estimate (PDCD1LG2 mutation status vs response (CR/PR vs. SD/PD)): 0.6678
- estimate (PDGFRA mutation status vs response (CR/PR vs. SD/PD)): 0
- estimate (PIK3C2B mutation status vs response (CR/PR vs. SD/PD)): Inf
- estimate (PIK3CA mutation status vs response (CR/PR vs. SD/PD)): 0.7935
- estimate (PIK3CB mutation status vs response (CR/PR vs. SD/PD)): Inf
- estimate (PIK3CG mutation status vs response (CR/PR vs. SD/PD)): 0
- estimate (PIK3R1 mutation status vs response (CR/PR vs. SD/PD)): 0.3297
- estimate (PIK3R2 mutation status vs response (CR/PR vs. SD/PD)): 0
- estimate (PMS2 mutation status vs response (CR/PR vs. SD/PD)): 0
- estimate (POLE mutation status vs response (CR/PR vs. SD/PD)): 0
- estimate (PRKCI mutation status vs response (CR/PR vs. SD/PD)): 0.6678
- estimate (PRSS8 mutation status vs response (CR/PR vs. SD/PD)): 0
- estimate (PTCH2 mutation status vs response (CR/PR vs. SD/PD)): 0
- estimate (PTEN mutation status vs response (CR/PR vs. SD/PD)): 0.3224
- estimate (PTPN11 mutation status vs response (CR/PR vs. SD/PD)): Inf
- estimate (PTPRD mutation status vs response (CR/PR vs. SD/PD)): Inf
- estimate (RAD50 mutation status vs response (CR/PR vs. SD/PD)): Inf
- estimate (RAD51C mutation status vs response (CR/PR vs. SD/PD)): 0
- estimate (RAD51 mutation status vs response (CR/PR vs. SD/PD)): Inf
- estimate (RAF1 mutation status vs response (CR/PR vs. SD/PD)): 0.5846
- estimate (RB1 mutation status vs response (CR/PR vs. SD/PD)): 0.6832
- estimate (RBM10 mutation status vs response (CR/PR vs. SD/PD)): 0.7743
- estimate (REL mutation status vs response (CR/PR vs. SD/PD)): 0
- estimate (RICTOR mutation status vs response (CR/PR vs. SD/PD)): 0.5352
- estimate (RNF43 mutation status vs response (CR/PR vs. SD/PD)): 0
- estimate (ROS1 mutation status vs response (CR/PR vs. SD/PD)): Inf
- estimate (RPA1 mutation status vs response (CR/PR vs. SD/PD)): Inf
- estimate (RPTOR mutation status vs response (CR/PR vs. SD/PD)): Inf
- estimate (RUNX1 mutation status vs response (CR/PR vs. SD/PD)): 0.3333
- estimate (SDHA mutation status vs response (CR/PR vs. SD/PD)): Inf
- estimate (SETD2 mutation status vs response (CR/PR vs. SD/PD)): 1.691
- estimate (SF3B1 mutation status vs response (CR/PR vs. SD/PD)): 0.1646
- estimate (SLIT2 mutation status vs response (CR/PR vs. SD/PD)): Inf
- estimate (SMAD2 mutation status vs response (CR/PR vs. SD/PD)): Inf
- estimate (SMAD3 mutation status vs response (CR/PR vs. SD/PD)): Inf
- estimate (SMAD4 mutation status vs response (CR/PR vs. SD/PD)): Inf
- estimate (SMARCA4 mutation status vs response (CR/PR vs. SD/PD)): 0.548
- estimate (SOX2 mutation status vs response (CR/PR vs. SD/PD)): Inf
- estimate (SOX9 mutation status vs response (CR/PR vs. SD/PD)): Inf
- estimate (SOX10 mutation status vs response (CR/PR vs. SD/PD)): Inf
